The values below are quoted from earlier work in patent publication US6642211B2 (Wisconsin Alumni Research Foundation, priority 2001, dated 2003).

Data set [1] has as its system high grade gliomas and malignant melanoma.
Data set [2] concerns human tumor xenografts, including malignant glioma. As to conditions: wide variety of human tumor xenografts. A general note: Xenograft models place foreign cells or tissue in a host animal.
Data set [3] deals with recurrent malignant glioma.
The mark [4] stands for this setting: prolonged infusions of up to 30 days, patients with leukemia.

Consider `Cn1nnc2c(C(N)=O)ncn2c1=O` [Temozolamide], for which the dose-limiting toxicity result in data set [1] (human, in vivo) was “related to myelosuppression”. In addition, the clinical efficacy entry in data set [1] (treatment of high grade gliomas and malignant melanoma) is reported as “demonstrated clinical efficacy”.
As to `Cc1cn([C@H]2C[C@H](O)[C@@H](CO)O2)c(=O)[nH]c1=O` [Thymidine], the tumor regression entry in data set [2] is given as “induces partial regression”. Further, the “cell killing in vitro” value in the data set with neoplastic cells was “preferentially kills neoplastic cells”. Further, in the data set on leukemia (setting [4]), the anti-cancer activity entry is “anti-cancer activity” and the myelotoxicity result is given as “significant myelotoxicity”. Besides, the efficacy entry in the data set on leukemia (shorter infusions of high dose thymidine) is on record as “effective”. Also, in data set [3] (Phase I), the “protection against carboplatin myelotoxicity” value was “protect against dose-limiting carboplatin myelotoxicity”. The “effect on pharmacokinetics or protein binding of carboplatin” value in data set [3] (thymidine-carboplatin interaction) is recorded as “not to affect”.
